Measured values from PMC8203924, “Development of a Potent Antimicrobial Peptide With Photodynamic Activity” (Frontiers in Microbiology, 2021).
In brackets after ≈: the same amount, converted by molar mass. Where two headings read alike, the source gives them in different places. Peptide text beside a SMILES is read from it. * marks the point of attachment. X1 = O=C(c1ccc2c3nc4nc(nc5[nH]c(nc6nc(nc([nH]3)c2c1)-c1ccccc1-6)c1ccccc51)-c1ccccc1-4)*

Key:
S. aureus (ATCC 6538) [1] = type: cell-based, Staphylococcus aureus; conditions: ATCC 6538, 20 h
Method: (§1) E. coli (ATCC 8739), S. aureus (ATCC 6538), or MRSA (ATCC 33591) were grown in LB culture medium at 37°C under aerobic conditions overnight (8–12 h) before use.
(§2) Bactericidal kinetics assay was also determined.

MRSA (ATCC 33591) [2] = type: cell-based, methicillin-resistant S. aureus; conditions: ATCC 33591, 20 h
Method: as §1, §2

E. coli (ATCC 8739) [3] = type: cell-based, Escherichia coli; conditions: ATCC 8739, 20 h
Method: as §1, §2

bioluminescent S. aureus [4] = type: cell-based, Staphylococcus aureus; conditions: without light; for higher efficacy than compound 1 or 2: on both bacterial strains (bioluminescent S. aureus and E. coli); for IC50: bioluminescent S. aureus, 10^6 CFU/ml in PBS, peptides in PBST, luminescence monitored 1 h, triplicate, mean ± SD, read-out: IC50 against S. aureus
Text: The side chain-protected peptides G3(RW)3, G3(RW)3K5, and G3K5(RW)3 on Wang resin were obtained commercially (GL Biochem Ltd., Shanghai). Beta-carboxy phthalocyanine zinc was developed by us by a method previously reported ([Chen et al., 2006]). Beta-carboxy phthalocyanine (β-PcCOOH) was purified on a silica column with N,N-dimethylformamide (DMF):acetone (3:1) as the second band. All the chemical reagents were analytical grade and used without further purification. Distilled water was used throughout the experiments. E. coli (ATCC 8739), S. aureus (ATCC 6538), and MRSA (ATCC 33591) were acquired from ATCC. Bioluminescent strains of E. coli DH5α were constructed by transformation of plasmid pAKlux2.1, which contained a complete bacterial luciferase operon as described ([Ullah et al., 2018]; [Chen et al., 2019]), and S. aureus Xen29 (NCTC8532) containing a stable copy of the modified Photorhabdus luminescens luxABCDE operon was purchased from Shanghai Biofeng Company.
(§3) Bioluminescent bacteria were grown in Luria-Bertani (LB) culture medium at 37°C under aerobic conditions overnight 8–12 diluted 100 times to 10^6 colony-forming units (CFU)/ml in phosphate buffered saline (PBS) before incubating with the peptides. The peptide or new compounds were first dissolved in PBST (PBS with 0.05% Tween 20) to prepare 1-mM stock solutions, and the solutions were then further diluted up to 100 μM with PBST. The bacterial suspensions were then incubated in 96-well plates with the compound peptides. The luminescence was monitored for 1 h to measure the bacterial viability. The percentage of survived bacteria was determined from the luminescence intensities of the treated group divided by the luminescence signal of the controls.

bioluminescent E. coli [5] = test: Photo-assisted antimicrobial activity against bioluminescent bacteria; type: cell-based, Escherichia coli; conditions: 680 nm LED 6 min, 12 J/cm^2, 33.33 mW/cm^2, after 10 min incubation, triplicate, mean ± SD, read-out: IC50 against E. coli upon illumination
Method: as §3
(§4) For photo-assisted antimicrobial activity measurements against bioluminescent bacteria, we used a procedure similar to as above, but with illumination using LM-LED light (680 nm) for 6 min (light dose of 12 J/cm^2, 33.33 mW/cm^2) after 10 min incubation of the bacterial suspensions and the compound peptides.

bioluminescent S. aureus [6] = type: cell-based, Staphylococcus aureus; conditions: for IC50: bioluminescent S. aureus, 680 nm LED 6 min, 12 J/cm^2, 33.33 mW/cm^2, after 10 min incubation, triplicate, mean ± SD, read-out: IC50 against S. aureus upon illumination
Method: as §3, §4

bioluminescent E. coli [7] = type: cell-based, Escherichia coli; conditions: 10^6 CFU/ml in PBS, peptides in PBST, luminescence monitored 1 h, without light, triplicate, mean ± SD, read-out: IC50 against E. coli
Text: The side chain-protected peptides G3(RW)3, G3(RW)3K5, and G3K5(RW)3 on Wang resin were obtained commercially (GL Biochem Ltd., Shanghai). Beta-carboxy phthalocyanine zinc was developed by us by a method previously reported ([Chen et al., 2006]). Beta-carboxy phthalocyanine (β-PcCOOH) was purified on a silica column with N,N-dimethylformamide (DMF):acetone (3:1) as the second band. All the chemical reagents were analytical grade and used without further purification. Distilled water was used throughout the experiments. E. coli (ATCC 8739), S. aureus (ATCC 6538), and MRSA (ATCC 33591) were acquired from ATCC. […]
Bioluminescent bacteria were grown in Luria-Bertani (LB) culture medium at 37°C under aerobic conditions overnight 8–12 diluted 100 times to 10^6 colony-forming units (CFU)/ml in phosphate buffered saline (PBS) before incubating with the peptides. […] The luminescence was monitored for 1 h to measure the bacterial viability. The percentage of survived bacteria was determined from the luminescence intensities of the treated group divided by the luminescence signal of the controls.

S. aureus [8] = test system: S. aureus
Text: Kunming mice (4-week-old, 25 ± 2 g, purchased from Shanghai SLAC Laboratory Animal Co. Ltd., Shanghai, China) were maintained and handled in accordance with the recommendations of the Institutional Animal Care And Use Committee (IACUC). […] Each group had six mice. All groups of mice were allowed free access to water and food throughout the experimental process. In each group, excisional wounds (10 mm × 10 mm) was made on the dorsal surface of the mouse by disinfected scissors to a depth of 2.0 mm. The bottom of the wound was panniculus carnosus with no visible bleeding. An aliquot (50 μl) of mid-log phase S. aureus (10^8 CFU/ml) was then inoculated into each wound of mice. […] The area of the wounds and body weight of mice were measured each day.

E. coli (ATCC 8739) [9] = conditions: 2 μM
Method: as §1
(§5) Photo-assisted antimicrobial activity assays of the compound peptides against ATCC standard strains were carried out by colony counting method. The agar plates with only bacterial suspension were used as negative control. The peptide and bacterial suspension were incubated together in 96-well microplates first. Under the same conditions, for comparison, the other groups were set without light. After incubation for 40 min at room temperature, aliquots of 100 μl were taken out of the solutions and placed on agar plates at serial dilutions, then incubated at 37°C for 18–24 h. Numbers of colonies were counted, and the antimicrobial rate (R) was calculated: R = (B-A)/B × 100%. Here, A is the bacterial colony number on the agar plates containing various concentrations of the peptides, and B is the colony number for negative control.

S. aureus (ATCC 6538) [10] = conditions: 2 μM
Method: as §1, §5

E. coli = conditions: 1-MIC, 12 h, OD600 hourly, 37°C
Method: (§6) Bactericidal kinetics assay was also determined. Different final concentrations (0, 1/8-, 1/4-, 1/2-, 1-MIC) of the peptides were added to the bioluminescent S. aureus suspension (10^3 CFU/ml). The bacteria were incubated at 37°C and 150 rpm. An aliquot of 100 μl of the suspension was taken out to measure the absorption at 600 nm on microplate reader once an hour for up to 12 h.

in vitro = conditions: human, human embryonic lung fibroblast (HELF) cells
Method: The culture medium was used as control. The cells were washed with PBS, then were divided into two groups, and the light group was exposed to 12 J/cm^2 of 680 nm light illumination. After another 12-h incubation, the culture medium was refreshed and 3-(4,5-dimethylthiazol-2-yl)-2,5-diphenyltetrazolium bromide (MTT) was added. After 4-h incubation at 37°C, the absorbance at 490 nm was measured on a multi-mode microplate reader (BioTek Synergy 4). The inhibition rate of cell growth was calculated by the following equation:
Cell viability%=Mean absorbance value of treatment group/Mean absorbance value of control×100%

S. aureus [11] = conditions: 1-MIC, 12 h, OD600 hourly, 37°C
Method: as §6

MRSA (ATCC 33591) [12] = test: Photo-assisted antimicrobial activity by colony counting method; type: cell-based, methicillin-resistant S. aureus; conditions: 2 μM, 6 min illumination, 12 J/cm^2, 33.33 mW/cm^2, colony counting, start 10^6 CFU/ml
Method: as §1, §5

[13] = mouse, in vivo, iv
Method: The blood of mice was diluted 10 times with DMF, immediately after collection, and then centrifuged to get supernatant for further determination. The supernatant was measured by fluorescence spectrophotometer F-4600 (HITACHI, Tokyo, Japan). The fluorescence intensity was recorded. The excitation and emission wavelengths were set at 610 and 680 nm. […] The plasma half-life (t1/2) can be calculated by the following formula:
Here, k represents the slope of fluorescence intensity-log (concentration) regression equation.

[14] = mouse, in vivo, iv; remark: listed apart in the source
Method: The mice were sacrificed at 2, 4, 8, 12, 24, 36, 48, and 72 h post-injection, and their primary organs (liver, kidneys, heart, spleen, lung, stomach, intestines) or muscles were collected postmortem. Meanwhile, their blood was collected through enucleation of eyeballs. These samples were then washed with saline and imaged on the three-dimension FMT 2500TM LX (PerkinElmer, Waltham, MA, United States) using the same acquisition settings as the in vivo imaging to quantitate the peptide average concentrations in the samples.

[15] = 36-s exposure or 0.60 J/cm^2, 33.33 mW/cm^2
[16] = 6 min illumination, 12 J/cm^2, 33.33 mW/cm^2, colony counting
[17] = 6 min illumination, 12 J/cm^2, 33.33 mW/cm^2, colony counting, start 10^6 CFU/ml

Row | Compound | MIC against S. aureus (S. aureus (ATCC 6538) [1]) | MIC against MRSA (MRSA (ATCC 33591) [2]) | MIC against E. coli (E. coli (ATCC 8739) [3]) | higher efficacy than compound 1 or 2 (bioluminescent S. aureus [4]) | IC50 (bioluminescent E. coli [5]) | IC50 (bioluminescent S. aureus [6]) | IC50 (bioluminescent E. coli [7]) | IC50 (bioluminescent S. aureus [4]) | other results
1 | N=C(N)NCCC[C@H](NC(=O)CNC(=O)CNC(=O)CNC(=O)c1ccc2c3nc4nc(nc5[nH]c(nc6nc(nc([nH]3)c2c1)-c1ccccc1-6)c1ccccc51)-c1ccccc1-4)C(=O)N[C@@H](Cc1c[nH]c2ccccc12)C(=O)N[C@@H](CCCNC(=N)N)C(=O)N[C@@H](Cc1c[nH]c2ccccc12)C(=O)N[C@@H](CCCNC(=N)N)C(=O)N[C@@H](Cc1c[nH]c2ccccc12)C(=O)N[C@@H](CCCCN)C(=O)N[C@@H](CCCCN)C(=O)N[C@@H](CCCCN)C(=O)N[C@@H](CCCCN)C(=O)N[C@@H](CCCCN)C(=O)O [Compound 5, PcG3(RW)3K5] (X1-GGGRWRWRWKKKKK-OH) | 16.1 µM (≈ 38.6 µg/mL) | 16.1 µM (≈ 38.6 µg/mL) | 16.1 µM (≈ 38.6 µg/mL) | 2–4 times |  |  |  |  | 
2 | H-GGGKKKKKRWRWRW-OH [Compound 1, G3K5(RW)3] | 107.8 µM | 107.8 µM | >215.6 µM |  | 59.2 ± 1.97 µM | 44.6 ± 4.72 µM | 61.8 ± 4.3 µM | 45.6 ± 2.9 µM | 
3 | N=C(N)NCCC[C@H](NC(=O)CNC(=O)CNC(=O)CNC(=O)c1ccc2c3nc4nc(nc5[nH]c(nc6nc(nc([nH]3)c2c1)-c1ccccc1-6)c1ccccc51)-c1ccccc1-4)C(=O)N[C@@H](Cc1c[nH]c2ccccc12)C(=O)N[C@@H](CCCNC(=N)N)C(=O)N[C@@H](Cc1c[nH]c2ccccc12)C(=O)N[C@@H](CCCNC(=N)N)C(=O)N[C@@H](Cc1c[nH]c2ccccc12)C(=O)O [Compound 3, PcG3(RW)3] (X1-GGGRWRWRW-OH) | 12.0 µM (≈ 21.1 µg/mL) | 24.0 µM (≈ 42.2 µg/mL) | 48.0 µM (≈ 84.3 µg/mL) |  |  |  |  |  | 
4 | H-GGGRWRWRWKKKKK-OH [Compound 2, G3(RW)3K5] | 107.8 µM | 107.8 µM | >215.6 µM |  | 129 ± 30.3 µM | 71.6 ± 2.82 µM | 135 ± 25.3 µM | 68 ± 3.2 µM | 
5 | N=C(N)NCCC[C@H](NC(=O)[C@H](Cc1c[nH]c2ccccc12)NC(=O)[C@H](CCCNC(=N)N)NC(=O)[C@H](Cc1c[nH]c2ccccc12)NC(=O)[C@H](CCCNC(=N)N)NC(=O)[C@H](CCCCN)NC(=O)[C@H](CCCCN)NC(=O)[C@H](CCCCN)NC(=O)[C@H](CCCCN)NC(=O)[C@H](CCCCN)NC(=O)CNC(=O)CNC(=O)CNC(=O)c1ccc2c3nc4nc(nc5[nH]c(nc6nc(nc([nH]3)c2c1)-c1ccccc1-6)c1ccccc51)-c1ccccc1-4)C(=O)N[C@@H](Cc1c[nH]c2ccccc12)C(=O)O [Compound 4, PcG3K5(RW)3] (X1-GGGKKKKKRWRWRW-OH) | 8.0 µM (≈ 19.2 µg/mL) | 16.1 µM (≈ 38.6 µg/mL) | 16.1 µM (≈ 38.6 µg/mL) | 2–4 times |  |  |  |  | wound recovery with one-time illumination (S. aureus [8]; 20 μM local, one-time 680-nm illumination 12.0 J/cm^2, 33.33 mW/cm^2, vs without illumination): better wound recovery than the ones without illumination at the first 3 days after surgery; wound healing of S. aureus infected excisional wounds (S. aureus [8]; 50 μl of 20 μM local administration, without light, n = 6 per group): promoted wound healing and prevented or alleviated the infection; increase of inhibitory efficacy upon illumination (bioluminescent S. aureus [6]; red light / LED illumination vs no light, S. aureus and E. coli): ~ 140 fold; elimination of E. coli at low dose of light (E. coli (ATCC 8739) [9]; [15]): about 80%; reduction of E. coli (E. coli (ATCC 8739) [9]; [16]): 99.9%; log reduction of E. coli (E. coli (ATCC 8739) [9]; [17]): 3 log; elimination of S. aureus at low dose of light (S. aureus (ATCC 6538) [10]; [15]): ~95%; reduction of S. aureus (S. aureus (ATCC 6538) [10]; [16]): ≤ 99.999%; log reduction of S. aureus (S. aureus (ATCC 6538) [10]; [17]): up to 5 log; bacterial proliferation of E. coli at MIC (E. coli): completely stopped; viability at 24 h (in vitro): > 90%; bacterial proliferation of S. aureus at MIC (S. aureus [11]): completely stopped; log reduction of MRSA (MRSA (ATCC 33591) [12]): up to 5 log; plasma half-life (t1/2) [13]: 11.09 h; time to be cleared out of organs [14]: ≤ 72 h
